# “Also recorded” adds a separate entry of the source. Structures can show the parent of a compound that is named as a salt. Where two headings read alike, the source gives them in different places.
# B1: FRG: murine monoclonal anti-CHI3L1 antibody raised against amino acid 223-234 of human CHI3L1; heavy chain SEQ ID NO: 13, light chain SEQ ID NO: 14 (antibody, V domains shown)
# VH: QIQLVQSGPELKKPGETVKISCKASGYTFTNYGMNWVKQAPGKGLKWMGWINTYTGEPTYADDFKGRFAFSLETSASTAYLQINNLRNEDMSTYFCARLGYGKFYVMDYWGQGTSVTVSS
# VL: DVVMTQTPLSLPVSLGDQASISCRSSQSLVHSNGNTYLHWYLQKPGQSPKLLIYKVSNRFSGVPDRFSGSGSGTDFTLKISRVEAEDLGVYFCSQSTHVTWTFGGGTKLEIK
# Tests used:
# [1] = molecular target: CDK2 (Homo sapiens, UniProt P24941); details: cited from earlier work
# [2] = molecular target: CDK6 (Homo sapiens, UniProt Q00534); parameters: key to the marks not given beside the values; details: cited from earlier work
# [3] = molecular target: CDK1 (Homo sapiens, UniProt P06493); details: cited from earlier work
# CDK1, sequence (P06493 whole entry, species assumed): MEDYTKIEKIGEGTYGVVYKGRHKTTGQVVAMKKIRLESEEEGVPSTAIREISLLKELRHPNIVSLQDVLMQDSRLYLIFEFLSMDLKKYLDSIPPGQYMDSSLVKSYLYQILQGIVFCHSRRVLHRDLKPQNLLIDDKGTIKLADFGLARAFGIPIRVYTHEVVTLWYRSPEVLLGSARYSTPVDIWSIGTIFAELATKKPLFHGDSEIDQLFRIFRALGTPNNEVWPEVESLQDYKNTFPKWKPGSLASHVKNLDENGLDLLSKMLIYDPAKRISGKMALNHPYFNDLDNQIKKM
# CDK1, sequence (P14635 whole entry partner, species assumed): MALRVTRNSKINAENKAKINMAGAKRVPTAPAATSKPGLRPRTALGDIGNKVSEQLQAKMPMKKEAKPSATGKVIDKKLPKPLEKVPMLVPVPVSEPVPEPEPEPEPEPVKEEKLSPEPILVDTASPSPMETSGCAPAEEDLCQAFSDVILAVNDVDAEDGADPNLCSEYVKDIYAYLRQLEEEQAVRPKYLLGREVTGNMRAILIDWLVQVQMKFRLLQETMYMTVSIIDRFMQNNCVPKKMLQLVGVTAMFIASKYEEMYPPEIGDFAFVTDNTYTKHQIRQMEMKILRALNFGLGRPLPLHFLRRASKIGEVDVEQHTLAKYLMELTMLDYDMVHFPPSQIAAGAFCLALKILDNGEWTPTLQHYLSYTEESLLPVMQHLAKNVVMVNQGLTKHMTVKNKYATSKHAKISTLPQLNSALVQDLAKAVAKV
# [4] = molecular target: CDK7 (Homo sapiens, UniProt P50613); details: cited from earlier work
# CDK7, sequence (P50613 whole entry): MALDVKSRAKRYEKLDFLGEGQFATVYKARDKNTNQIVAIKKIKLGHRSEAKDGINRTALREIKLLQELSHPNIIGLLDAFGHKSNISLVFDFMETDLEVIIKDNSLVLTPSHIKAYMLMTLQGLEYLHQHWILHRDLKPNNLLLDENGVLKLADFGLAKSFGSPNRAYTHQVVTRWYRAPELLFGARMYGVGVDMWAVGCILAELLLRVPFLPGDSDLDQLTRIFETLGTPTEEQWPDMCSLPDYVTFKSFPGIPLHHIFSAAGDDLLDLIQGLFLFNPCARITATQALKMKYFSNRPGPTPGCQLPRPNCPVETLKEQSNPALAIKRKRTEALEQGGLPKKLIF
# CDK7, sequence (P51946 whole entry, further chain): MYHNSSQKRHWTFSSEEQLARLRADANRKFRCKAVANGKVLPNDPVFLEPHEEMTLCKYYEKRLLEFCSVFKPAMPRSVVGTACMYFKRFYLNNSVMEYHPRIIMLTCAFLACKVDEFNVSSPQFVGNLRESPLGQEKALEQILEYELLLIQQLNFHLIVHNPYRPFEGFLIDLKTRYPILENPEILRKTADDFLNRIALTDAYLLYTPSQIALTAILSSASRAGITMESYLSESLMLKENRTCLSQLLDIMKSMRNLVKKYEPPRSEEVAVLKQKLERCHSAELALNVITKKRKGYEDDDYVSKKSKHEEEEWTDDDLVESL
# CDK7, sequence (P51948 whole entry, further chain): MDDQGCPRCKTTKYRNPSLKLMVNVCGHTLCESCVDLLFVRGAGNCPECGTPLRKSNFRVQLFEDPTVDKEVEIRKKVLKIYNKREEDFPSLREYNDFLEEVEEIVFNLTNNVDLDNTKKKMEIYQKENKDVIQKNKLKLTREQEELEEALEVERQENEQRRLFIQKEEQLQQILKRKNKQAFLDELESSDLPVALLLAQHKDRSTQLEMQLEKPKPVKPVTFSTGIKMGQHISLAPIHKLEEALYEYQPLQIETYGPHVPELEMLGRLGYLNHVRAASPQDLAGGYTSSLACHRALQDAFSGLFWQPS
# [5] = molecular target: CDK3 (Homo sapiens, UniProt Q00526); details: cited from earlier work
# CDK3, sequence (P24864 whole entry): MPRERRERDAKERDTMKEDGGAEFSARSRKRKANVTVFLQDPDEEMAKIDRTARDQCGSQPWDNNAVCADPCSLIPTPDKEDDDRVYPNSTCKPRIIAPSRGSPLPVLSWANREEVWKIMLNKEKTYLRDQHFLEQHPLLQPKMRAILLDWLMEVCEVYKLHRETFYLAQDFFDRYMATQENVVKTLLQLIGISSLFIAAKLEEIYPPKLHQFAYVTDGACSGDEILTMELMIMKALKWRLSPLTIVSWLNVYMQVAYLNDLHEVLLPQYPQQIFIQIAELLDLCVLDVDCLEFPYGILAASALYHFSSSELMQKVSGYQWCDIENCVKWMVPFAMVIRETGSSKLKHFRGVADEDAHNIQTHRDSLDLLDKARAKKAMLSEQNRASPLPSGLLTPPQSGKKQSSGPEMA
# CDK3, sequence (Q00526 whole entry): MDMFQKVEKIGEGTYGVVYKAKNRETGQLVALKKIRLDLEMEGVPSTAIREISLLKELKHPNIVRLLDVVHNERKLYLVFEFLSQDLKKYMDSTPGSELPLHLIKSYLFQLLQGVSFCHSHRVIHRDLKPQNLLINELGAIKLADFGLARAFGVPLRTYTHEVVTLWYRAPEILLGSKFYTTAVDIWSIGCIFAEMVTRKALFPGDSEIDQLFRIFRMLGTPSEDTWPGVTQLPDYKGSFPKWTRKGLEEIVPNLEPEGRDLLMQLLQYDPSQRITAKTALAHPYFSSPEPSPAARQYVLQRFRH
# [6] = molecular target: CDK4 (Homo sapiens, UniProt P11802); details: cited from earlier work
# CDK4, sequence (P11802 whole entry, species assumed): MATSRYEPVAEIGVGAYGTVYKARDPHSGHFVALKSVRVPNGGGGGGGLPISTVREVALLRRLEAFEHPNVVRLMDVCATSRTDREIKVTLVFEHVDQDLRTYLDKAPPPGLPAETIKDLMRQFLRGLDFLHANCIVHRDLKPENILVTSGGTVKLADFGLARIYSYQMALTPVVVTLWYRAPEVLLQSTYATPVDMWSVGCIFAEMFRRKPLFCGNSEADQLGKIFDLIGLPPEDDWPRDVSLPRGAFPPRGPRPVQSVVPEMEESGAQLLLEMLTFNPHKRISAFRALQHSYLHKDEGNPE
# CDK4, sequence (P24385 whole entry partner, species assumed): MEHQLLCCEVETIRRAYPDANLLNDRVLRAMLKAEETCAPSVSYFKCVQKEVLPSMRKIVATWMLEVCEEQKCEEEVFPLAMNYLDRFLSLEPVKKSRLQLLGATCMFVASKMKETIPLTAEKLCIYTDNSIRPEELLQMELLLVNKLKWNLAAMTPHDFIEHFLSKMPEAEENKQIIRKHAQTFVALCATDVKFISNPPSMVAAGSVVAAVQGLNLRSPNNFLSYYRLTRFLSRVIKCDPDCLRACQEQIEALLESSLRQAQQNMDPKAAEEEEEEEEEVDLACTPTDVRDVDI
# [7] = system: pseudovirus with the ancestral G614 S protein; assay type: cell-based, SARS-CoV-2
# [8] = system: pseudovirus with the G614 S protein; assay type: cell-based, SARS-CoV-2
# [9] = system: ACE2; assay type: cell-based, human
# [10] = system: influenza and other viral infections; details: cited from earlier work
# [11] = molecular target: Chitinase 1 (CHIT1) (Homo sapiens, UniProt Q13231); details: cited from earlier work
# Chitinase 1 (CHIT1), sequence (Q13231 22-466): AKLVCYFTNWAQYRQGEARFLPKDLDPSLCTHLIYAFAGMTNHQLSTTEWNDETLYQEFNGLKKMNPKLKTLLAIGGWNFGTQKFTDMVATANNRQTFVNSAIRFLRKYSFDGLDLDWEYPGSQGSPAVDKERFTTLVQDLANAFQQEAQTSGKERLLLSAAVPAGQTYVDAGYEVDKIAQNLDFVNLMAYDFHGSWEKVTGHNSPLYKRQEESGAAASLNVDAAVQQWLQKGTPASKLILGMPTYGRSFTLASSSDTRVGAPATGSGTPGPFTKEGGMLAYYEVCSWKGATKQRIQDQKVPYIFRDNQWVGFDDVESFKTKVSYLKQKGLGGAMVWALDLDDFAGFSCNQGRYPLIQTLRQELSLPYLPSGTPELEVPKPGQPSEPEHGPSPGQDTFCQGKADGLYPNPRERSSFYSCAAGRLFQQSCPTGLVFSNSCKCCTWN
# [12] = system: TMPRSS2, CTSL and FURIN; assay type: cell-based, human
# [13] = system: ERK and AKT; assay type: cell-based, human
# [14] = molecular target: CDK8 (Homo sapiens, UniProt P49336); parameters: key: + is used to indicate the potency of the inhibitor; ++++ > +++ > ++ > +; + is used to indicate the potency of the inhibitor; ++++ > +++ > ++ > +; + is used to indicate the potency of the inhibitor; ++++ > +++ > ++ > +; + is used to indicate the potency of the inhibitor; ++++ > +++ > ++ > +; ◯ refers to compounds with inhibitory effects on the related isoform, but without specific value; details: cited from earlier work
# [15] = molecular target: CDK9 (Homo sapiens, UniProt P50750); parameters: key: + is used to indicate the potency of the inhibitor; ++++ > +++ > ++ > +; + is used to indicate the potency of the inhibitor; ++++ > +++ > ++ > +; + is used to indicate the potency of the inhibitor; ++++ > +++ > ++ > +; + is used to indicate the potency of the inhibitor; ++++ > +++ > ++ > +; ◯ refers to compounds with inhibitory effects on the related isoform, but without specific value; details: cited from earlier work
# CDK9, sequence (P50750 whole entry, canonical isoform): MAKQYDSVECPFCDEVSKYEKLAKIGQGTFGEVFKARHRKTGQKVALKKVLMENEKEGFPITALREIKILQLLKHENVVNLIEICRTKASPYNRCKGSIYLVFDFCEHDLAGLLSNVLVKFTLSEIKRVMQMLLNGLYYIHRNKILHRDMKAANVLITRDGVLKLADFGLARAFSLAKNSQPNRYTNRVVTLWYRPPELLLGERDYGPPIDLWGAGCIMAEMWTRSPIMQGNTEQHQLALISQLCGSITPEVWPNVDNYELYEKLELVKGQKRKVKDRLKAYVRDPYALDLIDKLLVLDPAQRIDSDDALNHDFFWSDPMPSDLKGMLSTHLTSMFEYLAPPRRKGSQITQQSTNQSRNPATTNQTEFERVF
# CDK9, sequence (O60563 whole entry, further chain, canonical isoform): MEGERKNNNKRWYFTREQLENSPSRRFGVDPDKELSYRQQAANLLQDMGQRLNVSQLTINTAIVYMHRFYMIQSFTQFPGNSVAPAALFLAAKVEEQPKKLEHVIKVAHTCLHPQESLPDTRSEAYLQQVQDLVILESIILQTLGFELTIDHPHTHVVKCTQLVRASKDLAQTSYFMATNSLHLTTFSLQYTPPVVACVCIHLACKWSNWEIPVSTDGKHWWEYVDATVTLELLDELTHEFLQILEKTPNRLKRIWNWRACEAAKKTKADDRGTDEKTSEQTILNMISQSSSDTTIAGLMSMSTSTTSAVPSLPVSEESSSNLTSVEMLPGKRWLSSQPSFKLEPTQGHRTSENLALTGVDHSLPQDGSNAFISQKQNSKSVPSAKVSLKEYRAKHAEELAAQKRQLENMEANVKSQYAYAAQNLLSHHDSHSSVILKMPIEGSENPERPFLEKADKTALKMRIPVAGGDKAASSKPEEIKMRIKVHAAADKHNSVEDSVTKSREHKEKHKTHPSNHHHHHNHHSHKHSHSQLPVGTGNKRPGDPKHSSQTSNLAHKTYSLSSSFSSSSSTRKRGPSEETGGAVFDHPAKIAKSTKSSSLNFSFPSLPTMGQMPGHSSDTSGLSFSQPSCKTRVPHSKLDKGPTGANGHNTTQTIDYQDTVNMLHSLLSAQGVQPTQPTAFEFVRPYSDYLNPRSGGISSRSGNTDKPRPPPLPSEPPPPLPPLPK
# [16] = molecular target: human and mouse CHI3L1; assay: Ligand binding affinity of FRG by ELISA; details: both human and mouse CHI3L1
# Method: The murine monoclonal anti-CHI3L1 antibody (FRG) was generated using peptide antigen (amino acid 223-234 of human CHI3L1) as immunogen through Abmart Inc (Berkeley Heights, NJ). […] HEK-293T cells were transfected with the FRG construct using Lipofectamine™ 3000 (Invitrogen, #L3000015). Supernatant was collected for 7 days, and the antibody was purified using a protein A column (ThermoFisher scientific, #89960). Ligand binding affinity and sensitivity were assessed using ELISA techniques.
# [17] = system: ACE2; assay: Immunocytochemical evaluation of ACE2 in Calu-3 cells; assay type: cell-based, human; details: at baseline and or after the administration of rCHI3L1; ICC, FIG. 18
# [18] = system: pseudovirus containing the S protein (D614 and G614 variants); assay type: cell-based; details: Calu-3 cells, rCHI3L1 250 ng/mL 24 hours, GFP by flow cytometry
# [19] = system: pseudoviruses with delta S proteins; assay type: cell-based, SARS-CoV-2
# [20] = Calu-3 cells, 24 hours, FRG or KSM 250 ng/mL, RT-PCR
molecule,measurement,setting,value
"CN1CC[C@H](c2c(O)cc(O)c3c(=O)cc(-c4ccccc4Cl)oc23)[C@H](O)C1 [Flavopiridol HCl, Flavopiridol Hydrochloride]",Inhibitory potency CDK2,[1],+++
same,Inhibitory potency CDK6,[2],+++
same,Inhibitory potency CDK1,[3],+++
same,Inhibitory potency CDK7,[4],+
same,Inhibitory potency CDK3,[5],+
same,Inhibitory potency CDK4,[6],+++
"C[C@H]1O[C@H](O[C@H]2[C@H](O)[C@@H](O)[C@@H](O)[C@H](O)[C@@H]2O)[C@@H](N)C[C@@H]1NC(=N)C(=O)O [Kasugamycin, 2-amino-2-[(2R,3S,5S,6R)-5-amino-2-methyl-6-[(2R,3S,5S,6S)-2,3,4,5,6-pentahydroxycyclohexyl]oxyoxan-3-yl]iminoacetic acid]",rCHI3L1-augmented pseudovirus uptake,[7],abrogated
same,pseudovirus uptake when exogenous CHI3L1 was not administered,[8],diminished
same,ability of rhCHI3L1 to stimulate ACE2 mRNA accumulation,[9],potently inhibited; also recorded: potently ameliorated
same,levels of basal ACE2 expression,[9],diminished
same,influenza and other viral infections,[10],inhibit
same,anti-Chitinase 1 (CHIT1) activities,[11],strong
same,"basal and rhCHI3L1-stimulated expression of TMPRSS2, CTSL and FURIN",[12],potently decreased
same,CHI3L1 stimulated MAPK and AKT activation,[13],abrogated
LY2857785,Inhibitory potency CDK8,[14],+++
same,Inhibitory potency CDK7,[4],+
same,Inhibitory potency CDK9,[15],+++
B1,pseudovirus uptake when exogenous rCHI3L1 was not administered,[7],diminished
same,rCHI3L1-augmented pseudovirus uptake,[7],abrogated
same,pseudovirus uptake when exogenous CHI3L1 was not administered,[8],diminished
same,Kd,[16],~1.1 nM
same,expression of ACE2,[17],abrogated
same,levels of basal ACE2 expression,[9]; [20],modestly diminished
same,ability of rhCHI3L1 to stimulate ACE2 mRNA accumulation,"[9]; Calu-3 cells, rhCHI3L1 24 hours, FRG or KSM 250 ng/mL, RT-PCR",potently inhibited; also recorded: potently ameliorated
same,CHI3L1 effect on cellular integration of S proteins,[18],abrogated
same,delta pseudovirus infection,[19],abrogated
same,"basal and rhCHI3L1-stimulated expression of TMPRSS2, CTSL and FURIN",[12]; [20],potently decreased
